In patent US20230043863A1, “HETEROAROMATIC DERIVATIVES FOR USE AS REGULATOR, PREPARATION METHOD THEREFOR AND USE THEREOF” (JIANGSU HANSOH PHARMACEUTICAL GROUP CO., LTD., priority 2018, published 2023) one finds IC50 data, which are given here for 15 compounds.

One assay deals with JAK1 (Homo sapiens, UniProt P23458). In words: JAK kinase activity inhibition, TR-FRET (JAK1). Type of assay: biochemical. The following applies: TR-FRET kinase assay. The essentials: (§1)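 TR-FRET read (≈620 and 665 nm) after EDTA quench and 1-24 h antibody detection at RT. Kinase 0.1-20 nM, peptide substrate + ATP, 0.5-5 h RT reaction in HEPES 50-250 mM, MgCl2 5-20 mM. IC50 from 4-parameter fit vs DMSO and no-kinase controls.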
Background: In TR-FRET formats the signal depends on donor and acceptor labels being close together.

The target in another assay is TYK2 (Homo sapiens, UniProt P29597). Description: JAK kinase activity inhibition, TR-FRET (TYK2). The following applies: TR-FRET kinase assay. Type of assay: biochemical. The essentials:
as §1

Assay [1] concerns JAK-STAT signal pathway of U266 cells. Description: Inhibition of cellular JAK-STAT signal pathway (STAT3 phosphorylation) in U266 cells. Type of assay: cell-based, human. The note with it: Homo sapiens, U-266, INF-a 1000 U/mL stimulation. As for the experimental part:
The objective of the test is to test the inhibitory activity of the compound on the cellular JAK-STAT signaling pathway.
U266 cell line was used in this experiment, by activating the JAK-STAT signaling pathway through INF-a stimulation, the inhibitory activity of the compound on its downstream STAT3 phosphorylation was detected, and the half inhibitory concentration IC50 of the compound on the JAK-STAT signaling pathway activity was obtained.
3-12 μL of U266 cell line was spread into the 384-well detection plate, and the number of cells in each well was 100-300 K, followed by addition of 2 μL of the compound solution serially diluted. The plate was incubated for 2 hours with shaking at 350 rpm at room temperature. After 2 hours, 2 μL of INF-a with a final concentration of 1000 U/mL was added. The plate was shaken at room temperature for 15 minutes. 2-5 μL (5×) LANCE Ultra Lysis Buffer 2 solution was added and the plate was shaken at room temperature for 2 hours. After 2 hours, 5 μL of LANCE Ultra Eu-labeled Anti-STAT3 Antibody (PerkinElmer) with a final concentration of 0.5 nM and LANCE Ultra ULight-labeled Anti-STAT3 Antibody (PerkinElmer) with a final concentration of 5 nM were added, and the plate was incubated overnight at room temperature. The fluorescence signal value at 665 nm of each well was measured with the microplate reader, and the inhibition rate was calculated from the fluorescence signal value. According to the inhibition rate of different concentrations, the IC50 of the compound was obtained by curve fitting.
The percentage inhibition data of the wells treated with the compound was calculated with the positive control wells (DMSO control wells) and negative control wells (no kinase added) on the plate {% inhibition rate=100-[(test compound value-negative control value)]/(Positive control value-negative control value)×100}. IC50 value was calculated by using GraphPad prism to fit the data of different concentrations and corresponding percentage inhibition rates to a 4-parameter non-linear logic formula.

Structures are written as SMILES.

By IC50 is commonly meant the concentration at which inhibition is half-maximal.

Chain of TYK2 (P29597 whole entry): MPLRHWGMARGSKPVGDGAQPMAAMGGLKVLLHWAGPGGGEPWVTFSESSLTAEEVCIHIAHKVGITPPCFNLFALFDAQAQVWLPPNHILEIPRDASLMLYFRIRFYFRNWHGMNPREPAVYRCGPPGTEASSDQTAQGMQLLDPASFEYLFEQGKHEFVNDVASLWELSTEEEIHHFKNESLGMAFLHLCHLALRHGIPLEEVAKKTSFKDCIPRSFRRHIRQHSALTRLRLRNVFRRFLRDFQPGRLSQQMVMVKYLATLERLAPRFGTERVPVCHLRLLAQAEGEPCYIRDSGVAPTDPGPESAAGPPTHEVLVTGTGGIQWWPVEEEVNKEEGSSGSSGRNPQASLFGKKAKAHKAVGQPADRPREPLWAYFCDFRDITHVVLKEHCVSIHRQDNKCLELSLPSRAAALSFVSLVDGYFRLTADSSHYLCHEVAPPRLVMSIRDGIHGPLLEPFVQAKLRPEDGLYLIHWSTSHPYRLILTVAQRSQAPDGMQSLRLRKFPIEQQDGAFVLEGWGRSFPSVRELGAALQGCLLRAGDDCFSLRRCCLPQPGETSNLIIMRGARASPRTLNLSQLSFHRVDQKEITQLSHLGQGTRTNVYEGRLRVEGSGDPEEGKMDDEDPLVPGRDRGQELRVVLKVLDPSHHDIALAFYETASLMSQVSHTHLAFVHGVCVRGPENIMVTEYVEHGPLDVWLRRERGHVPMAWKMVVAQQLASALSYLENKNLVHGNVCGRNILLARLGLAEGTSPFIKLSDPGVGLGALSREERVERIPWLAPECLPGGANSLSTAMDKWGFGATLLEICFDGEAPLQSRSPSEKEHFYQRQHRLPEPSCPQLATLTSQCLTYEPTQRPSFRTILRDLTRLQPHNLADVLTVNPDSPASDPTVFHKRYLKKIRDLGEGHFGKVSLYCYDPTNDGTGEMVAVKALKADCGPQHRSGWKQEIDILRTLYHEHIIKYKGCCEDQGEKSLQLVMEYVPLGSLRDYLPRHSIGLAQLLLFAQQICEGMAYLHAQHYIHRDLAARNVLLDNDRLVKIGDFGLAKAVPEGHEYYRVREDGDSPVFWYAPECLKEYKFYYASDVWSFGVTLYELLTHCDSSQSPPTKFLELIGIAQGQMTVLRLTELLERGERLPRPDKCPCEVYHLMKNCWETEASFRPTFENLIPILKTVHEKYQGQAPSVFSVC
Chain of JAK1 (P23458 whole entry): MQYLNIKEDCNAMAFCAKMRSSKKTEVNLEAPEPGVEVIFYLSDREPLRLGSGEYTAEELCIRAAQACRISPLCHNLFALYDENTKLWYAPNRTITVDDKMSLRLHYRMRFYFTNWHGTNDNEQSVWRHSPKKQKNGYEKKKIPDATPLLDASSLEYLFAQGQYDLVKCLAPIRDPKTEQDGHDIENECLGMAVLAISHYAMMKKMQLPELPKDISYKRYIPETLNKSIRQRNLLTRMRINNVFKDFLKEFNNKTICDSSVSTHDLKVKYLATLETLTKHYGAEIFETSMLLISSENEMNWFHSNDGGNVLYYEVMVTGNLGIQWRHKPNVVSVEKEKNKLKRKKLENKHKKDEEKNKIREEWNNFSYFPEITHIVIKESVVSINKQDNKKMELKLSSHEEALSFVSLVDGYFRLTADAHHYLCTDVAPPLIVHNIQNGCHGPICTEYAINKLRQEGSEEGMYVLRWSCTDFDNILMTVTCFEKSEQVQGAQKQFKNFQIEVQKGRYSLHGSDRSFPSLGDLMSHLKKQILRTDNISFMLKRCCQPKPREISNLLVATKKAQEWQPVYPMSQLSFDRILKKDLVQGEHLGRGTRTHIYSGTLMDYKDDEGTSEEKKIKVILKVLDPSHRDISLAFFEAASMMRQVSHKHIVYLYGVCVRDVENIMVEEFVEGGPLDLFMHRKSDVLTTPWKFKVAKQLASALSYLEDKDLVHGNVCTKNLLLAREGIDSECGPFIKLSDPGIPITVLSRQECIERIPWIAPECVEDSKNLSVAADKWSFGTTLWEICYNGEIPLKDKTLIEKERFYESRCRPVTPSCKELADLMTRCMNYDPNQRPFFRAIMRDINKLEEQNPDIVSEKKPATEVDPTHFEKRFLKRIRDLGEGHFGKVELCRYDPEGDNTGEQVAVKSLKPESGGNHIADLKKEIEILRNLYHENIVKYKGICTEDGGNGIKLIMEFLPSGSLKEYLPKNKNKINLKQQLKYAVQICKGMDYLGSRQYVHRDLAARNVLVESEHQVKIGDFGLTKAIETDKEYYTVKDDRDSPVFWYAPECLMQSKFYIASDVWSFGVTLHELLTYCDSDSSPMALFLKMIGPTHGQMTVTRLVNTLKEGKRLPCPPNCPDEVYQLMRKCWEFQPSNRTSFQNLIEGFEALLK

Take `CCNCC(=O)N1[C@@H]2CC[C@H]1C[C@H](Nc1nc(Nc3cc(C)[nH]n3)c3ccsc3n1)C2` [Embodiment 255, 2-(ethylamino)-1-((3-exo)-3-((4-((5-methyl-1H-pyrazol-3-yl)amino)thieno[2,3-d]pyrimidin-2-yl)amino)-8-azabicyclo[3.2.1]oct-8-yl)ethane-1-one]: the results for the IC50 (at JAK1; at TYK2; in assay [1]) were 1.17 nM, 2.38 nM and 8.67 nM, respectively.

Regarding `Cc1cc(Nc2nc(N[C@@H]3C[C@H]4CCC[C@@H](C3)N4C(=O)CN3CCN(C)CC3)nc3sccc23)n[nH]1` [Embodiment 258, 1-((3-exo)-3-((4-((5-methyl-1H-pyrazol-3-yl)amino)thieno[2,3-d]pyrimidin-2-yl)amino)-9-azabicyclo[3.3.1]non-9-yl)-2-(4-methylpiperazin-1-yl)ethane-1-one], the IC50 is 0.27 nM at JAK1, 0.61 nM at TYK2 and 32.7 nM in assay [1].

Take `Cc1cc(Nc2nc(N[C@@H]3C[C@H]4CCC[C@@H](C3)N4C(=O)c3cccnc3)nc3sccc23)n[nH]1` [Embodiment 261, ((3-exo)-3-((4-((5-methyl-1H-pyrazol-3-yl)amino)thieno[2,3-d]pyrimidin-2-yl)amino)-9-azabicyclo[3.3.1]non-9-yl)(pyridin-3-yl)methanone]: the IC50 at JAK1 stood at 0.04 nM; on TYK2, 5.58 nM; in assay [1], 10.6 nM.

Regarding `Cc1cc(Nc2nc(N[C@@H]3C[C@H]4CCC[C@@H](C3)N4C(=O)c3cn(C)cn3)nc3sccc23)n[nH]1` [Embodiment 264, (1-methyl-1H-imidazol-4-yl) ((3-exo)-3-((4-((5-methyl-1H-pyrazol-3-yl)amino)thieno[2,3-d]pyrimidin-2-yl)amino)-9-azabicyclo[3.3.1]non-9-yl)methanone], the IC50 on JAK1 turned out to be 0.19 nM; on TYK2, 0.48 nM; in assay [1] it was 33.5 nM.

For the compound `Cc1cc(Nc2nc(N[C@@H]3C[C@H]4CCC[C@@H](C3)N4S(=O)(=O)c3cccnc3)nc3sccc23)n[nH]1` [Embodiment 268], the IC50 was determined as 0.21 nM on JAK1, 0.19 nM on TYK2 and 42.9 nM in assay [1].

Consider `Cc1cc(Nc2nc(N[C@@H]3C[C@H]4CCC[C@@H](C3)N4CC(=O)N(C)C)nc3sccc23)n[nH]1` [Embodiment 270, N,N-dimethyl-2-((3-exo)-3-((4-((5-methyl-1H-pyrazol-3-yl)amino)thieno[2,3-d]pyrimidin-2-yl)amino)-9-azabicyclo[3.3.1]non-9-yl)acetamide], for which the IC50 stood at 1.22 nM on JAK1, 5.78 nM on TYK2 and 14.3 nM in assay [1].

For `Cc1cc(Nc2nc(N[C@@H]3C[C@H]4CCC[C@@H](C3)N4Cc3ccccn3)nc3sccc23)n[nH]1` [Embodiment 271], the values for the IC50 (at JAK1; at TYK2; in assay [1]) were 0.05 nM, 4.91 nM and 1.49 nM, respectively.

As for `Cc1cc(Nc2nc(N[C@@H]3C[C@H]4CCC[C@@H](C3)N4Cc3nccn3C)nc3sccc23)n[nH]1` [Embodiment 272, N^2-((3-exo)-9-((1-methyl-1H-imidazol-2-yl)methyl)-9-azabicyclo[3.3.1]non-3-yl)-N^4-(5-methyl-1H-pyrazol-3-yl)thieno[2,3-d]pyrimidin-2,4-diamine], the IC50 on JAK1 was determined as 0.6 nM; at TYK2 it was 24.7 nM; in assay [1], 15.3 nM.

As to `Cc1cc(Nc2nc(O[C@@H]3C[C@H]4CC[C@@H](C3)N4CCC#N)nc3sccc23)n[nH]1` [Embodiment 279, 3-((3-exo)-3-((4-((5-methyl-1H-pyrazol-3-yl)amino)thieno[2,3-d]pyrimidin-2-yl)oxo)-8-azabicyclo[3.2.1]oct-8-yl)propionitrile], the IC50 on JAK1 worked out at 0.24 nM; at TYK2, 0.66 nM; in assay [1], 2.2 nM.

Regarding `Cc1cc(Nc2nc(N[C@@H]3C[C@H]4CC[C@@H](C3)N4S(=O)(=O)N3CC(C#N)C3)nc3ccsc23)n[nH]1` [Embodiment 285], the results for the IC50 (at JAK1; on TYK2; in assay [1]) were 0.17 nM, 0.51 nM and 42 nM, respectively.

As for `Cc1cc(Nc2nc(N[C@@H]3C[C@H]4CC[C@@H](C3)N4C(=O)CN(C)C)nc3ccsc23)n[nH]1` [Embodiment 287, 2-(dimethylamine)-1-((3-exo)-3-((4-((5-methyl-1H-pyrazol-3-yl)amino)thieno[3,2-d]pyrimidin-2-yl)amino)-8-azabicyclo[3.2.1]oct-8-yl)ethane-1-one], the IC50 came to 0.58 nM on JAK1, 4.21 nM at TYK2 and 10.5 nM in assay [1].

On to `Cc1cc(Nc2nc(N[C@@H]3C[C@H]4CC[C@@H](C3)N4CC(=O)N(C)C)nc3ccsc23)n[nH]1` [Embodiment 293, N,N-dimethyl-2-((3-exo)-3-((4-((5-methyl-1H-pyrazol-3-yl)amino)thieno[3,2-d]pyrimidin-2-yl)amino)-8-azabicyclo[3.2.1]oct-8-yl)acetamide], for which the IC50 on JAK1 stood at 3.97 nM; on TYK2 it was 10.8 nM; in assay [1], 16.5 nM.

As for `Cc1cc2nc(N[C@@H]3C[C@H]4CCC[C@@H](C3)N4CCC#N)nc(Nc3cc(CO)[nH]n3)c2s1` [Embodiment 294], the IC50 at JAK1 amounted to 0.64 nM; on TYK2 it was 0.23 nM; in assay [1], 15.3 nM.

With `Cc1cc(Nc2nc(N[C@@H]3C[C@@H]4CN(CCC#N)C[C@@H]4C3)nc3sccc23)n[nH]1` [Embodiment 298, 3-(cis-5-((4-((5-methyl-1H-pyrazol-3-yl)amino)thieno[2,3-d]pyrimidin-2-yl)amino)hexahydrocyclopentadieno[c]pyrrole-2(1H)-yl)propionitrile], the IC50 on JAK1 amounted to 0.67 nM; on TYK2, 22.8 nM; in assay [1], 1.86 nM.

For the compound `Cc1cc(Nc2nc(NC3CCN(CCC#N)CC3)nc3ccccc23)n[nH]1` [Embodiment 310, 3-(4-((4-((5-methyl-1H-pyrazol-3-yl)amino)quinazolin-2-yl)amino)piperidin-1-yl)propionitrile], the IC50 on JAK1 stood at 8.67 nM; at TYK2, 0.26 nM; in assay [1], 5.41 nM.
